Assays:
Assay in all cases: biochemical
Parameters in all cases: KinomeScan competition binding panel (DiscoveRx), percent of control at 1 uM
Conditions in all cases: read-out: Percent Control
RIPK4 = RIPK4 (Homo sapiens, UniProt P57078)
Method in brief: (§1)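 Selectivity profiled across 456 kinases/mutants by KinomeScan binding technology.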

PRKCQ = PRKCQ (Homo sapiens, UniProt Q04759)
Method in brief: as §1

[1] = biological target: T1, ABL1(T315I)-nonphosphorylated (Homo sapiens, UniProt P00519, T315I)
T1 construct: nonphosphorylated
Method in brief: as §1

DRAK2 = biological target: T2, DRAK2 (Homo sapiens, UniProt O94768)
T2 construct: gene STK17B
Method in brief: as §1

CAMK1D = CAMK1D (Homo sapiens, UniProt Q8IU85)
Method in brief: as §1

PIK3CB = PIK3CB (Homo sapiens, UniProt P42338)
PIK3CB, sequence (P42338 whole entry): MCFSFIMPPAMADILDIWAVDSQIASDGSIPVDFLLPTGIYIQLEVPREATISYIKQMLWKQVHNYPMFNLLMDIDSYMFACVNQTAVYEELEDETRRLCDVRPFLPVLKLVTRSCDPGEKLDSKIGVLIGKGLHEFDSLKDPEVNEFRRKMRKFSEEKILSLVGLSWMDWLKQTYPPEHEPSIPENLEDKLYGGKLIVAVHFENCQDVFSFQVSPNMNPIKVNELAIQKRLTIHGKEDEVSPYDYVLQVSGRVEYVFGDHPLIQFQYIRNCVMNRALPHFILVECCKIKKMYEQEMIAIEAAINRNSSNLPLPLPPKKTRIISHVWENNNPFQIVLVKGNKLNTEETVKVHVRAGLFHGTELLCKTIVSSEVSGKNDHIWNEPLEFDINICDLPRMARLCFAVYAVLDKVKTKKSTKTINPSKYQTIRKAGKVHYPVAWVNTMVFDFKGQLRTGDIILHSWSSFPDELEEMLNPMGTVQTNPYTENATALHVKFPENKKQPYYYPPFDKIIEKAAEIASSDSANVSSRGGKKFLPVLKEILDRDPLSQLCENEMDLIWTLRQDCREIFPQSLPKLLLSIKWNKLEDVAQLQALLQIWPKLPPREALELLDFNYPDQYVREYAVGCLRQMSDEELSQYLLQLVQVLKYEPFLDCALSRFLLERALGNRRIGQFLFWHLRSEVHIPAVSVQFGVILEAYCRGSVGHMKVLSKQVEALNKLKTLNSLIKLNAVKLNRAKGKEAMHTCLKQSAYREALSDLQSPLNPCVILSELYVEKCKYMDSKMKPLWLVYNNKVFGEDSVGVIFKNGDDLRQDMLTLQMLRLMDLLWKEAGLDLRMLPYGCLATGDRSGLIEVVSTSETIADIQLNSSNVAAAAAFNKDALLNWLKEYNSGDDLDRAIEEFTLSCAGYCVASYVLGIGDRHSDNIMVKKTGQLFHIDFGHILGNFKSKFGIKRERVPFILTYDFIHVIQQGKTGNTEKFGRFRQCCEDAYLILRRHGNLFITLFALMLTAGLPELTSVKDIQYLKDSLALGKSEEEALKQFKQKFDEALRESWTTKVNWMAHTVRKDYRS
Method in brief: as §1

DCAMKL1 = biological target: T3, DCAMKL1 (Homo sapiens, UniProt O15075)
T3 construct: gene DCLK1
T3 sequence (O15075 whole entry): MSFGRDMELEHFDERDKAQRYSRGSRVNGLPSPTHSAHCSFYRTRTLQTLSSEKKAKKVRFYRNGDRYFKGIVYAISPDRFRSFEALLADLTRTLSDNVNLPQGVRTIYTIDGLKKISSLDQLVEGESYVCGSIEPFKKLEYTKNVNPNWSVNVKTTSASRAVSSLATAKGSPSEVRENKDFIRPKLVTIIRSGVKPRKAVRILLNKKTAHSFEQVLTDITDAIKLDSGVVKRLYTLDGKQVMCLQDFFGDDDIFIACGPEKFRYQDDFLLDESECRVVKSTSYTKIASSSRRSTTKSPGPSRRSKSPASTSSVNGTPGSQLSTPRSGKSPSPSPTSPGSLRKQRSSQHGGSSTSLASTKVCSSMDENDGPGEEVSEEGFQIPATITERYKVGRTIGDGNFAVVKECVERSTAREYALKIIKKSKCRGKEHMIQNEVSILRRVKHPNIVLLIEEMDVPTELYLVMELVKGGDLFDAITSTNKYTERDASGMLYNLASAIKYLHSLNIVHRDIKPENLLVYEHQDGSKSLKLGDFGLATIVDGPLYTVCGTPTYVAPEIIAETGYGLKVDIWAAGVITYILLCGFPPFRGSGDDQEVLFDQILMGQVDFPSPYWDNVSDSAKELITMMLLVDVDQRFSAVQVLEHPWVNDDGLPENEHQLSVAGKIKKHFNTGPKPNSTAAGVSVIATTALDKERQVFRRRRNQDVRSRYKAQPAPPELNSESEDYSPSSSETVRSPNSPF
Method in brief: as §1

CAMK2D = CAMK2D (Homo sapiens, UniProt Q13557)
Method in brief: as §1

STK33 = STK33 (Homo sapiens, UniProt Q9BYT3)
Method in brief: as §1

PRKCI = PRKCI (Homo sapiens, UniProt P41743)
PRKCI, sequence (P41743 whole entry): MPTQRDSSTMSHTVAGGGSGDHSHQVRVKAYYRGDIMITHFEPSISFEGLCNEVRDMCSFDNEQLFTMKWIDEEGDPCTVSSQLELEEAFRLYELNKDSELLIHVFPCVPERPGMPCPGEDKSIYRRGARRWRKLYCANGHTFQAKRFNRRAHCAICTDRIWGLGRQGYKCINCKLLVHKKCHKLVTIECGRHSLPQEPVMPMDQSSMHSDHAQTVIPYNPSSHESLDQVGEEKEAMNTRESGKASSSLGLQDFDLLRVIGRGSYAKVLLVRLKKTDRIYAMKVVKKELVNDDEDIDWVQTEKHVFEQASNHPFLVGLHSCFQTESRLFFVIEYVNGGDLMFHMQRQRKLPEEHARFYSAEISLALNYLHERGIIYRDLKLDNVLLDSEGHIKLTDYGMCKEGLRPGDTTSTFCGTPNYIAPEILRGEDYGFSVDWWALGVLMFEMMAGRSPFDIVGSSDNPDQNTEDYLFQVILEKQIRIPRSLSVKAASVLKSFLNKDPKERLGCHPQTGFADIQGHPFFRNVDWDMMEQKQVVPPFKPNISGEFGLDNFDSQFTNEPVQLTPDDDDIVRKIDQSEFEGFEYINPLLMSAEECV
Method in brief: as §1

CAMK2G = CAMK2G (Homo sapiens, UniProt Q13555)
CAMK2G, sequence (Q13555 whole entry): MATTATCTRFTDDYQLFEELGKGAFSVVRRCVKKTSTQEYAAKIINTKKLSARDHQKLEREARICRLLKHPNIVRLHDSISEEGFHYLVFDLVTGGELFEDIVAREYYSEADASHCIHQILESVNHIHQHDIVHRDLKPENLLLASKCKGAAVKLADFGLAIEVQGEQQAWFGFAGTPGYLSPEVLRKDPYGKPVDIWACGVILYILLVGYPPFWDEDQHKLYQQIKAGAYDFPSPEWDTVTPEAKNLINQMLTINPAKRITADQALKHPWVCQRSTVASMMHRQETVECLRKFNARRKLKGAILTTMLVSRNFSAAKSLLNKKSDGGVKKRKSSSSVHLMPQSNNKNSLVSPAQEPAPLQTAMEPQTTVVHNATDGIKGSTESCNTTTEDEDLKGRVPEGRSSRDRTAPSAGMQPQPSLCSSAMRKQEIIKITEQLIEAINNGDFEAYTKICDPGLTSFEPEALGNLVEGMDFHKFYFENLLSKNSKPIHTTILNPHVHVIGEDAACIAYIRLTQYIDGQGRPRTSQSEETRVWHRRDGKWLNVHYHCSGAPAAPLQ
Method in brief: as §1

[2] = biological target: T4, ABL1(H396P)-nonphosphorylated (Homo sapiens, UniProt P00519, H396P)
T4 construct: nonphosphorylated
Method in brief: as §1

PIK3C2G = PIK3C2G (Homo sapiens, UniProt O75747)
Method in brief: as §1

PIK3CA(Q546K) = PIK3CA(Q546K) (Homo sapiens, UniProt P42336, Q546K)
Method in brief: as §1

PIK3CA(E545K) = PIK3CA(E545K) (Homo sapiens, UniProt P42336, E545K)
Method in brief: as §1

ROCK1 = ROCK1 (Homo sapiens, UniProt Q13464)
Method in brief: as §1

RET(V804M) = RET(V804M) (Homo sapiens, UniProt P07949, V804M)
Method in brief: as §1

BUB1 = BUB1 (Homo sapiens, UniProt O43683)
Method in brief: as §1

CDKL2 = CDKL2 (Homo sapiens, UniProt Q92772)
Method in brief: as §1

CAMKK1 = CAMKK1 (Homo sapiens, UniProt Q8N5S9)
Method in brief: as §1

IKK-alpha = biological target: T5, IKK-alpha (Homo sapiens, UniProt O15111)
T5 construct: gene CHUK
T5 sequence (O15111 whole entry): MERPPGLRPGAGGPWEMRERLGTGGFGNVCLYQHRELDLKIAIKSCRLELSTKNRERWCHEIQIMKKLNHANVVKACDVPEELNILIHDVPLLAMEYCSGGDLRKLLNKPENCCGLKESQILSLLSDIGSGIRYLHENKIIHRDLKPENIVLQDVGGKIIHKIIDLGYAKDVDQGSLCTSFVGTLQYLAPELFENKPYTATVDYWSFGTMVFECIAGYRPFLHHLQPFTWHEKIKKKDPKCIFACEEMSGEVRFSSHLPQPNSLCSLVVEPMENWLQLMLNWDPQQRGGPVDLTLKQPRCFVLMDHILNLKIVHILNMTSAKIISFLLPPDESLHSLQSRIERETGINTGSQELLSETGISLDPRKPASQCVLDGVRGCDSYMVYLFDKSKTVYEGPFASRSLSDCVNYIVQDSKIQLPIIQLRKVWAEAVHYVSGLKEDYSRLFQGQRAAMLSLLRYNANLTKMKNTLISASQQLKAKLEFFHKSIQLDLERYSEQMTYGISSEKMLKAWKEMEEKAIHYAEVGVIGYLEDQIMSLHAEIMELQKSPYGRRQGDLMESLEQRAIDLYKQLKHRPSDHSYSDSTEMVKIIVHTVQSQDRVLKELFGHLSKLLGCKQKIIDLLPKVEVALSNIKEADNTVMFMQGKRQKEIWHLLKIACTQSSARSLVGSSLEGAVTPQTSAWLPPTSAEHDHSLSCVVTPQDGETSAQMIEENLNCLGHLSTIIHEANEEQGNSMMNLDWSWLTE
Method in brief: as §1

[3] = biological target: T6, ABL1(H396P)-phosphorylated (Homo sapiens, UniProt P00519, H396P)
T6 construct: phosphorylated
Method in brief: as §1

JNK3 = biological target: T7, JNK3 (Homo sapiens, UniProt P53779)
T7 construct: gene MAPK10
Method in brief: as §1

EIF2AK1 = EIF2AK1 (Homo sapiens, UniProt Q9BQI3)
Method in brief: as §1

NDR2 = biological target: T8, NDR2 (Homo sapiens, UniProt Q9Y2H1)
T8 construct: gene STK38L
T8 sequence (Q9Y2H1 whole entry): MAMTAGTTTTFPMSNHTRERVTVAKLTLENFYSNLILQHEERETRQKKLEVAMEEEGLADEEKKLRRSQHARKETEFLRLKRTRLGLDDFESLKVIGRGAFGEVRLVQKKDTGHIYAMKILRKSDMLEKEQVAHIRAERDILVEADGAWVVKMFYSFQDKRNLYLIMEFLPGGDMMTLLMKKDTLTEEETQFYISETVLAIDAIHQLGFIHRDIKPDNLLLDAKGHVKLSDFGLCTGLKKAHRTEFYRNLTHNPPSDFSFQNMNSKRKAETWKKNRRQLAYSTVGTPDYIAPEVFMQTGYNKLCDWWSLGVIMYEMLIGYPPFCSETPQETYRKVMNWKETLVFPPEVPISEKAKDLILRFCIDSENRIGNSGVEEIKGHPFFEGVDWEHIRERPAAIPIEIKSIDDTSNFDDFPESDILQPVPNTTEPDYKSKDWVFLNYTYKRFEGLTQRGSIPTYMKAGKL
Method in brief: as §1

PRKCQ, sequence (Q04759 whole entry): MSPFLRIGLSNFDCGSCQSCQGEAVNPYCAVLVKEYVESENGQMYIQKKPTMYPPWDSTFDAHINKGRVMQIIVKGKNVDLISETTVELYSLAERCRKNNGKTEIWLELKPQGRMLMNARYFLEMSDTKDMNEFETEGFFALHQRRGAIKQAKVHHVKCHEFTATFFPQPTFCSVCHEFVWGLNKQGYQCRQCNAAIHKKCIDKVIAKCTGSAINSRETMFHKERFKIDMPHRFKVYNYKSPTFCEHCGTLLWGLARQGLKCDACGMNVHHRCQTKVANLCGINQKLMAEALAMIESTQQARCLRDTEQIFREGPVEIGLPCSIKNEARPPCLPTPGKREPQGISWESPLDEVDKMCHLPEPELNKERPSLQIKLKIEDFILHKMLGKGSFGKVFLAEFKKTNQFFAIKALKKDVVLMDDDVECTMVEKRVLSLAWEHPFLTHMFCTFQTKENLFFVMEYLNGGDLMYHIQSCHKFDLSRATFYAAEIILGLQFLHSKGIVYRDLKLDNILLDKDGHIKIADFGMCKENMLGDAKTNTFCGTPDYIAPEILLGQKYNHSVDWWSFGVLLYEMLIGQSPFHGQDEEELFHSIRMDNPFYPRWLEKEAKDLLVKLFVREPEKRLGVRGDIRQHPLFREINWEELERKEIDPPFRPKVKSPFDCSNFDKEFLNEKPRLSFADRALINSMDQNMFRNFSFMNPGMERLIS

SMILES: C=CC(=O)Nc1cc(-n2c(=O)ccc3cnc4ccc(-n5cccn5)cc4c32)ccc1C [CHMFL-BTK-11]
- remaining binding at 1 µM (RIPK4): 100%
- remaining binding at 1 µM (PRKCQ): 100%
- remaining binding at 1 µM [1]: 79%
- remaining binding at 1 µM (DRAK2): 95%
- remaining binding at 1 µM (CAMK1D): 100%
- remaining binding at 1 µM (PIK3CB): 100%
- remaining binding at 1 µM (DCAMKL1): 91%
- remaining binding at 1 µM (CAMK2D): 80%
- remaining binding at 1 µM (STK33): 89%
- remaining binding at 1 µM (PRKCI): 69%
- remaining binding at 1 µM (CAMK2G): 73%
- remaining binding at 1 µM [2]: 100%
- remaining binding at 1 µM (PIK3C2G): 95%
- remaining binding at 1 µM (PIK3CA(Q546K)): 97%
- remaining binding at 1 µM (PIK3CA(E545K)): 69%
- remaining binding at 1 µM (ROCK1): 89%
- remaining binding at 1 µM (RET(V804M)): 100%
- remaining binding at 1 µM (BUB1): 83%
- remaining binding at 1 µM (CDKL2): 81%
- remaining binding at 1 µM (CAMKK1): 78%
- remaining binding at 1 µM (IKK-alpha): 96%
- remaining binding at 1 µM [3]: 100%
- remaining binding at 1 µM (JNK3): 100%
- remaining binding at 1 µM (EIF2AK1): 92%
- remaining binding at 1 µM (NDR2): 99%

Reference: publication PMC5428509, “Irreversible inhibition of BTK kinase by a novel highly selective inhibitor CHMFL-BTK-11 suppresses inflammatory response in rheumatoid arthritis model” (Scientific Reports, 2017)
